{"source": "ChEMBL document CHEMBL4376898", "about": "“Enhanced Activity against Multidrug-Resistant Bacteria through Coapplication of an Analogue of Tachyplesin I and an Inhibitor of the QseC/B Signaling Pathway” (J Med Chem, 2020)", "key": {"Lysobacter enzymogenes": {"test_system": "Lysobacter enzymogenes", "experiment": "Germicidal activity against Lysobacter enzymogenes YC36 at 5 to 10 pM", "assay_type": "functional"}, "[1]": {"experiment": "Bactericidal activity against Lysobacter enzymogenes YC36 with delta qseC mutant assessed as killing of bacterial cells at 2 ug/ml relative to control", "assay_type": "functional"}, "Escherichia coli [2]": {"test_system": "Escherichia coli", "experiment": "Bactericidal activity against Escherichia coli K-12", "assay_type": "functional"}, "Enterococcus faecium [3]": {"test_system": "Enterococcus faecium", "experiment": "Antimicrobial activity against Enterococcus […] ATCC 29212 assessed as inhibition of visible growth incubated for 18 hrs", "assay_type": "functional", "details": "ATCC 29212, 18 h"}, "Klebsiella pneumoniae [4]": {"test_system": "Klebsiella pneumoniae", "experiment": "Antimicrobial activity against Klebsiella pneumoniae BAA 1144 assessed as inhibition of visible growth incubated for 18 hrs", "assay_type": "functional", "details": "BAA 1144, 18 h"}, "Shigella flexneri": {"test_system": "Shigella flexneri", "experiment": "Bactericidal activity against Shigella flexneri ATCC 29903", "assay_type": "functional"}, "Staphylococcus aureus [5]": {"test_system": "Staphylococcus aureus", "experiment": "Bactericidal activity against Staphylococcus aureus ATCC 29213", "assay_type": "functional"}, "Pseudomonas aeruginosa [6]": {"test_system": "Pseudomonas aeruginosa", "experiment": "Antimicrobial activity against Pseudomonas aeruginosa ATCC 27853 assessed as inhibition of visible growth incubated for 18 hrs", "assay_type": "functional", "details": "ATCC 27853, 18 h"}, "Bacillus subtilis [7]": {"test_system": "Bacillus subtilis", "experiment": "Bactericidal activity against Bacillus subtilis 168", "assay_type": "functional"}, "[8]": {"experiment": "Antimicrobial activity against Lysobacter enzymogenes YC36 assessed as inhibition of visible growth measured after 7th generation exposure to compound by continuous repeated transfer assay (reference value: 8 ug/ml)", "assay_type": "functional"}, "Enterococcus faecium [9]": {"test_system": "Enterococcus faecium", "experiment": "Bactericidal activity against Enterococcus […] ATCC 29212", "assay_type": "functional"}, "Escherichia coli [10]": {"test_system": "Escherichia coli", "experiment": "Antimicrobial activity against Escherichia coli K-12 assessed as inhibition of visible growth incubated for 18 hrs", "assay_type": "functional", "details": "K-12, 18 h"}, "Pseudomonas aeruginosa [11]": {"test_system": "Pseudomonas aeruginosa", "experiment": "Antimicrobial activity against Pseudomonas aeruginosa BAA 2108 assessed as inhibition of visible growth incubated for 18 hrs", "assay_type": "functional", "details": "BAA 2108, 18 h"}, "Acinetobacter baumannii [12]": {"test_system": "Acinetobacter baumannii", "experiment": "Bactericidal activity against Acinetobacter baumannii ATCC 19606", "assay_type": "functional", "details": "ATCC 19606 = CIP 70.34 = JCM 6841"}, "Bacillus subtilis [13]": {"test_system": "Bacillus subtilis", "experiment": "Antimicrobial activity against Bacillus subtilis 168 assessed as inhibition of visible growth incubated for 18 hrs", "assay_type": "functional", "details": "Bacillus subtilis, 168, 18 h"}, "[14]": {"experiment": "Bactericidal activity against Lysobacter enzymogenes YC36", "assay_type": "functional"}, "Staphylococcus aureus [15]": {"test_system": "Staphylococcus aureus", "experiment": "Antimicrobial activity against Staphylococcus aureus ATCC 29213 assessed as inhibition of visible growth incubated for 18 hrs", "assay_type": "functional", "details": "ATCC 29213, 18 h"}, "Acinetobacter baumannii [16]": {"test_system": "Acinetobacter baumannii", "experiment": "Antimicrobial activity against Acinetobacter baumannii ATCC 19606 assessed as inhibition of visible growth incubated for 18 hrs", "assay_type": "functional", "details": "ATCC 19606 = CIP 70.34 = JCM 6841, 18 h"}, "Staphylococcus aureus [17]": {"test_system": "Staphylococcus aureus", "experiment": "Antimicrobial activity against Staphylococcus aureus BAA 44 assessed as inhibition of visible growth incubated for 18 hrs", "assay_type": "functional", "details": "BAA 44, 18 h"}, "Escherichia coli [18]": {"test_system": "Escherichia coli", "experiment": "Antimicrobial activity against Escherichia coli ATCC 25923 assessed as inhibition of visible growth incubated for 18 hrs", "assay_type": "functional", "details": "ATCC 25923, 18 h"}, "[19]": {"experiment": "Bactericidal activity against Lysobacter enzymogenes YC36 with delta qseB mutant assessed as killing of bacterial cells at 2 ug/ml relative to control", "assay_type": "functional"}, "Klebsiella pneumoniae [20]": {"test_system": "Klebsiella pneumoniae", "experiment": "Antimicrobial activity against Klebsiella pneumoniae BAA 2470 assessed as inhibition of visible growth incubated for 18 hrs", "assay_type": "functional", "details": "BAA 2470, 18 h"}, "[21]": {"experiment": "Antimicrobial activity against Lysobacter enzymogenes YC36 assessed as inhibition of visible growth measured after 7th generation exposure to compound by continuous repeated transfer assay (reference value: 4 ug/ml)", "assay_type": "functional"}, "Enterobacter cloacae": {"test_system": "Enterobacter cloacae", "experiment": "Antimicrobial activity against Enterobacter cloacae BAA 1143 assessed as inhibition of visible growth incubated for 18 hrs", "assay_type": "functional", "details": "BAA 1143, 18 h"}, "Pseudomonas aeruginosa [22]": {"test_system": "Pseudomonas aeruginosa", "experiment": "Bactericidal activity against Pseudomonas aeruginosa ATCC 27853", "assay_type": "functional"}, "Staphylococcus aureus [23]": {"test_system": "Staphylococcus aureus", "experiment": "Antimicrobial activity against Staphylococcus aureus BAA 41 assessed as inhibition of visible growth incubated for 18 hrs", "assay_type": "functional", "details": "BAA 41, 18 h"}, "Escherichia coli [24]": {"test_system": "Escherichia coli", "experiment": "Antimicrobial activity against Escherichia coli BAA 2469 assessed as inhibition of visible growth incubated for 18 hrs", "assay_type": "functional", "details": "BAA 2469, 18 h"}, "[25]": {"experiment": "Antimicrobial activity against Lysobacter enzymogenes YC36 assessed as inhibition of visible growth measured after 7th generation exposure to compound by continuous repeated transfer assay relative to before passage", "assay_type": "functional"}, "L02 [26]": {"test_system": "L02", "experiment": "Cytotoxicity in human L02 cells assessed as reduction in cell viability at >64 ug/ml incubated for 48 hrs by resazurin dye based assay", "details": "l02, 48 h"}, "L02 [27]": {"test_system": "L02", "experiment": "Cytotoxicity in human L02 cells assessed as reduction in cell viability at <32 ug/ml incubated for 48 hrs by resazurin dye based assay", "details": "l02, 48 h"}, "Erythrocyte": {"test_system": "Erythrocyte", "experiment": "Toxicity in human erythrocytes assessed as induction of hemolysis at <50 ug/ml incubated for 1 hr by spectrometry", "assay_type": "cell-based"}, "[28]": {"experiment": "Stability in human plasma assessed as parent compound remaining at […] measured after 2 hrs by HPLC analysis", "assay_type": "ADME, cell-free", "details": "read-out: Stability"}, "[29]": {"experiment": "Stability in human plasma assessed as parent compound remaining at […] measured after 6 hrs by HPLC analysis", "assay_type": "ADME, cell-free", "details": "read-out: Stability"}, "[30]": {"experiment": "Toxicity in human erythrocytes assessed as induction of hemolysis at 16 ug/ml incubated for 1 hr by spectrometry", "assay_type": "cell-based, Erythrocyte", "details": "read-out: Activity"}}, "note": "Activity calls are given as the source filed them. No cut-off for these calls is given here.", "data": [{"smiles": "O=S(=O)(Nc1ccccc1)c1ccc(NC(=S)Nc2ccccc2)cc1", "values": [{"measurement": "Activity", "setting": "Lysobacter enzymogenes", "result": "inactive"}]}, {"smiles": "CC[C@@H](C)[C@H]1NC(=O)CNC(=O)[C@@H](CCCNC(=N)N)NC(=O)[C@@H](Cc2ccc(O)cc2)NC(=O)[C@H]2CSSC[C@@H](NC1=O)C(=O)N[C@H](Cc1ccc(O)cc1)C(=O)N[C@H](CCCNC(=N)N)C(=O)N[C@H](CCCNC(=N)N)C(=O)N[C@@H](C(=O)N[C@H](CCCNC(=N)N)C(N)=O)CSSC[C@@H](NC(=O)[C@@H](Cc1c[nH]c3ccccc13)NC(=O)[C@H](N)CCCCN)C(=O)N[C@H](Cc1ccccc1)C(=O)N[C@H](CCCNC(=N)N)C(=O)N[C@H](C(C)C)C(=O)N2", "note": "[listing 1 of 2 here]", "values": [{"measurement": "Activity", "setting": "[1]", "result": "<=100%"}, {"measurement": "MBC", "setting": "Escherichia coli [2]", "result": "16 to 64", "unit": "µg/mL"}, {"measurement": "MIC", "setting": "Enterococcus faecium [3]", "result": 4, "unit": "µg/mL"}, {"measurement": "MIC", "setting": "Klebsiella pneumoniae [4]", "result": 16, "unit": "µg/mL"}, {"measurement": "MBC", "setting": "Shigella flexneri", "result": "16 to 64", "unit": "µg/mL"}, {"measurement": "MBC", "setting": "Staphylococcus aureus [5]", "result": "16 to 64", "unit": "µg/mL"}, {"measurement": "MIC", "setting": "Pseudomonas aeruginosa [6]", "result": "8 to 16", "unit": "µg/mL"}, {"measurement": "MBC", "setting": "Bacillus subtilis [7]", "result": "16 to 64", "unit": "µg/mL"}, {"measurement": "MIC", "setting": "[8]", "result": 16, "unit": "µg/mL"}, {"measurement": "MBC", "setting": "Enterococcus faecium [9]", "result": "16 to 64", "unit": "µg/mL"}, {"measurement": "MIC", "setting": "Escherichia coli [10]", "result": 8, "unit": "µg/mL"}, {"measurement": "MIC", "setting": "Pseudomonas aeruginosa [11]", "result": 8, "unit": "µg/mL"}, {"measurement": "MBC", "setting": "Acinetobacter baumannii [12]", "result": "16 to 64", "unit": "µg/mL"}, {"measurement": "MIC", "setting": "Bacillus subtilis [13]", "result": 4, "unit": "µg/mL"}, {"measurement": "MBC", "setting": "[14]", "result": "16 to 64", "unit": "µg/mL"}, {"measurement": "MIC", "setting": "Staphylococcus aureus [15]", "result": 8, "unit": "µg/mL"}, {"measurement": "MIC", "setting": "Acinetobacter baumannii [16]", "result": 8, "unit": "µg/mL"}, {"measurement": "MIC", "setting": "Staphylococcus aureus [17]", "result": 4, "unit": "µg/mL"}, {"measurement": "MIC", "setting": "Escherichia coli [18]", "result": 8, "unit": "µg/mL"}, {"measurement": "Activity", "setting": "[19]", "result": "<=100%"}, {"measurement": "MIC", "setting": "Klebsiella pneumoniae [20]", "result": 16, "unit": "µg/mL"}, {"measurement": "MIC", "setting": "[21]", "result": 16, "unit": "µg/mL"}, {"measurement": "MIC", "setting": "Enterobacter cloacae", "result": 8, "unit": "µg/mL"}, {"measurement": "MBC", "setting": "Pseudomonas aeruginosa [22]", "result": "16 to 64", "unit": "µg/mL"}, {"measurement": "MIC", "setting": "Staphylococcus aureus [23]", "result": 4, "unit": "µg/mL"}, {"measurement": "MIC", "setting": "Escherichia coli [24]", "result": 8, "unit": "µg/mL"}, {"measurement": "fold change (FC)", "setting": "[25]", "result": 4}]}, {"smiles": "CC[C@@H](C)[C@H]1NC(=O)CNC(=O)[C@@H](CCCNC(=N)N)NC(=O)[C@@H](Cc2ccc(O)cc2)NC(=O)[C@H]2CSSC[C@@H](NC1=O)C(=O)N[C@H](Cc1ccc(O)cc1)C(=O)N[C@H](CCCNC(=N)N)C(=O)N[C@H](CCCNC(=N)N)C(=O)N[C@@H](C(=O)N[C@H](CCCNC(=N)N)C(N)=O)CSSC[C@@H](NC(=O)[C@@H](Cc1c[nH]c3ccccc13)NC(=O)[C@H](N)CCCCN)C(=O)N[C@H](Cc1ccccc1)C(=O)N[C@H](CCCNC(=N)N)C(=O)N[C@H](C(C)C)C(=O)N2", "note": "[listing 2 of 2 here]", "values": [{"measurement": "Activity", "setting": "L02 [26]", "result": "Toxic"}, {"measurement": "Activity", "setting": "L02 [27]", "result": "Non-Toxic"}, {"measurement": "Activity", "setting": "Erythrocyte", "result": "Toxic"}, {"measurement": "remaining at 2 h", "setting": "[28]", "result": "> 80", "unit": "%"}, {"measurement": "remaining at 6 h", "setting": "[29]", "result": 20, "unit": "%"}, {"measurement": "hemolysis at 1 h, 16 ug/ml", "setting": "[30]", "result": 10, "unit": "%"}]}]}
